We go through 19 compounds from US5114961A, “2,5-diaryl tetrahydrofurans and analogs thereof as PAF antagonists” (Merck & Co., Inc., priority 1990, dated 1992).

Molecules are shown by their SMILES.

The inhibition is the drop in the measured response relative to a control, in per cent. A high value points to strong suppression.

T1 sequence (P25105 whole entry): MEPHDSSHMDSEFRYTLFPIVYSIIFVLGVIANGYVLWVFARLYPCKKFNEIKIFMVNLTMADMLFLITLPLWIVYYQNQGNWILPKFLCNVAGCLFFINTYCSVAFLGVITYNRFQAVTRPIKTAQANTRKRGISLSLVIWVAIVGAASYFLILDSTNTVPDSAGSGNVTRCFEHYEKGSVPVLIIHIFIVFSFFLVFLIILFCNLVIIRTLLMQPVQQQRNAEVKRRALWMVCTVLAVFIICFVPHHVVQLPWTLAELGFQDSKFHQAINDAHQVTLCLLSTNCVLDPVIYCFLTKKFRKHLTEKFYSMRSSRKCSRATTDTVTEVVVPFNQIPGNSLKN

This test addresses T1, PAF specific receptor binding site (human platelet membranes) (Homo sapiens, UniProt P25105).
T1 construct: platelet membranes at a drug concentration of 3 nM; from tissue; host or cells: human platelet plasma membranes
The test is described as follows: Inhibition of [3H]N-methylcarbamoyl-PAF binding to human platelet membranes. As to conditions: drug concentration of 3 nM, trans configuration. The method, then: The ability of a compound of formula (I) to inhibit the PAF binding to its specific receptor binding site on rabbit or human platelet or PMN plasma membranes was measured by a recently developed assay.
The inhibition of ^3 [H]-PAF or ^3 [H]-N-methyl carbamoyl-TAF binding to the human or rabbit platelet or PMN plasma membrane by a PAF antagonist of formula (I) was determined by a method employing isotopic labeling and filtration techniques. Generally, a series of Tris-buffered solutions of the selected antagonist at predetermined concentrations were prepared. Each of these solutions contains 1 pmole of ^3 H-PAF, a known amount of the test antagonist, and a sufficient amount of the pH 7.5 Tris-buffer solution (10mM Tris, 0.25% bovine serum albumin, and 150 mM NaCl per ml water) to make the final volume of 1 ml. After adding into a set of test tubes each with 100 μg of the platelet plasma membrane suspension (S. B. Hwang, et. al., Biochemistry, Vol. 22 pp. 4756-4763, 1983) and one of the Tris-buffer solutions described above, the resulting mixture in each test tube was incubated at 0° C. for about one hours or until the reaction was complete. Two control samples, one of which (C1) contains all the ingredients described above except the antagonist and the other (C2) contains C1 plus a 100-fold excess of unlabeled PAF, were also prepared and incubated simultaneously with the test samples. After the incubation was completed, the contents of each test tube were filtered under vacuo through a Whatman GF/C fiberglass filter and the residue washed rapidly several times with a total of 20 ml cold (0°-5° C.) Tris-buffer solution. Each washed residue was then suspended in 10 ml scintillation solution (Aquasol 2, New England Nuclear, Conn.) and the radioactivity was counted in a Packard Tri-Carb 460CD Liquid Scintillation System. Defining the counts from a test sample as "Total binding with antagonist"; the counts from the control sample C1, as "Total binding C1 "; and the counts from the control sample C2 as "non-specific binding C2 ", the percent inhibition of each test antagonist can be determined by the following equations: [formula]
In turn, `CCCOc1c(OCCCc2cccnc2)cc([C@H]2CC[C@H](c3cc(OC)c(OC)c(OC)c3)O2)cc1S(=O)(=O)CC(C)=O` (relative stereo) [trans-2-{3-(2-Oxopropylsulfonyl)-4-n-propoxy-5-[3-(3-pyridyl)propoxy}phenyl]-5-(3,4,5-trimethoxyphenyl) tetrahydrofuran] had an inhibition at 0.003 µM of 62%.
`CCCS(=O)(=O)c1cc([C@@H]2CC[C@@H](c3cc(OC)c(OC)c(OC)c3)O2)cc(OC)c1OCCSc1nc[nH]n1` (relative stereo) [trans-2-[3-n-Propylsulfonyl-4-{2-(3-triazolthio)ethoxy}-5-methoxyphenyl]-5-(3,4,5-trimethoxyphenyl) tetrahydrofuran] returned an inhibition at 0.003 µM of 23%.
As for `CCCS(=O)(=O)c1cc([C@H]2CC[C@H](c3cc(OC)c(OC)c(OC)c3)O2)cc(OC)c1OCCSc1ccc(C(=N)N)cc1` (relative stereo) [trans-2-[3-n-Propylsulfonyl-4-{2-(4-amidinophenylthio)ethoxy}-5-methoxyphenyl]-5-(3,4,5-trimethoxyphenyl)tetrahydrofuran], the figure is 60%; as for `CCCOc1c(OCCN2CCCC2)cc([C@@H]2CC[C@@H](c3cc(OC)c(OC)c(OC)c3)O2)cc1S(=O)(=O)CC(C)=O` (relative stereo) [trans-2-[3-(2-Oxopropylsulfonyl)-4-n-propoxy-5-{2-(1-pyrrolidino)-ethoxy}phenyl]-5-(3,4,5-trimethoxyphenyl)tetrahydrofuran], 29%.
As for `CCCOc1c(OCCCN2CCCC2)cc([C@@H]2CC[C@@H](c3cc(OC)c(OC)c(OC)c3)O2)cc1S(=O)(=O)CC(C)=O` (relative stereo) [trans-2-[3-(2-Oxopropylsulfonyl)-4-n-propoxy-5-{3-(1-pyrrolidino)-n-propoxy}phenyl]-5-(3,4,5-trimethoxyphenyl)tetrahydrofuran], the figure is 48%; as for `CCCOc1c(OCCN2CCNCC2)cc([C@@H]2CC[C@@H](c3cc(OC)c(OC)c(OC)c3)O2)cc1S(=O)(=O)CC(C)=O` (relative stereo), 34%.
As for `CCCOc1c(OCCSc2ncc[nH]2)cc([C@H]2CC[C@H](c3cc(OC)c(OC)c(OC)c3)O2)cc1S(=O)(=O)CC(C)O` (relative stereo) [trans-2-[3-(2-Hydroxy-n-propylsulfonyl)-4-n-propoxy-5-{2-(2-imidazolylthio)ethoxy}phenyl]-5-(3,4,5-trimethoxyphenyl)tetrahydrofuran], the figure is 34%.
Take `CCCOc1cc([C@@H]2CC[C@@H](c3cc(OC)c(OC)c(OC)c3)O2)cc(S(=O)(=O)CCN2CCCC2)c1OCCC` (relative stereo) [trans-2-[3-(2-N-Pyrrolidinylethylsulfonyl)-4,5-dipropoxyphenyl]-5-(3,4,5-trimethoxyphenyl) tetrahydrofuran]: the inhibition at 0.003 µM was found to be 18%.
In turn, `CCCOc1c(OCCCSc2ncc[nH]2)cc([C@H]2CC[C@H](c3cc(OC)c(OC)c(OC)c3)O2)cc1S(=O)(=O)CC(C)=O` (relative stereo) [trans-2-[3-(2-Oxopropylsulfonyl)-4-n-propoxy-5-{3-(2-imidazolylthio)propoxy}phenyl]-5-(3,4,5-trimethoxyphenyl)tetrahydrofuran] had an inhibition at 0.003 µM of 45%.
For `CCCS(=O)(=O)c1cc([C@@H]2CC[C@@H](c3cc(OC)c(OC)c(OC)c3)O2)cc(OC)c1OCCSc1ncc[nH]1` (relative stereo) [trans-2-[3-n-Propylsulfonyl-4-{2-(2-imidazolthio)ethoxy}-5-methoxyphenyl]-5-(3,4,5-trimethoxyphenyl) tetrahydrofuran], 0.003 µM produced 60% inhibition.
With `CCCOc1c(OCCCN2CCOCC2)cc([C@@H]2CC[C@@H](c3cc(OC)c(OC)c(OC)c3)O2)cc1S(=O)(=O)CCC(C)O` (relative stereo) [trans-2-[3-(3-Hydroxybutyl)sulfonyl-4-n-propoxy-5-(3-{1-morpholino}-n-propoxy)phenyl]-5-(3,4,5-trimethoxyphenyl)tetrahydrofuran] the figure was 25%; with `CCCS(=O)(=O)c1cc([C@@H]2CC[C@@H](c3cc(OC)c(OC)c(OC)c3)O2)cc(OC)c1OCCS(=O)(=O)c1ccccc1` (relative stereo) [trans-2-[3-n-Propylsulfonyl-4-{2-(Phenylsulfonyl)ethoxy}-5-methoxyphenyl]-5-(3,4,5-trimethoxyphenyl(tetrahydrofuran], 73%; with `CCCOc1c(OCCCN2CCOCC2)cc([C@@H]2CC[C@@H](c3cc(OC)c(OC)c(OC)c3)O2)cc1S(=O)(=O)CC(C)=O` (relative stereo) [trans-2-[3-(2-oxopropylsulfonyl)-4-n-propoxy-5-{3-(1-morpholino)-n-propoxy}phenyl]-5-(3,4,5-trimethoxyphenyl)tetrahydrofuran], 31%.
With `CCCS(=O)(=O)c1cc([C@H]2CC[C@H](c3cc(OC)c(OC)c(OC)c3)O2)cc(OC)c1OCCSc1ccncc1` (relative stereo) [trans-2-[3-n-Propylsulfonyl-4-{2-(4-pyridylthio)ethoxy}-5-methoxyphenyl]-5-(3,4,5-trimethoxyphenyl) tetrahydrofuran] the figure was 73%; with `CCCOc1c(OCCCCSc2ncc[nH]2)cc([C@H]2CC[C@H](c3cc(OC)c(OC)c(OC)c3)O2)cc1S(=O)(=O)CC(C)=O` (relative stereo) [trans-2-[3-(2-Oxopropylsulfonyl)-4-n-propoxy-5-{4-(2-imidazolylthio)butoxy}phenyl]-5-(3,4,5-trimethoxyphenyl)tetrahydrofuran], 60%.
With `CCCOc1c(OCCN2CCCCC2)cc([C@H]2CC[C@H](c3cc(OC)c(OC)c(OC)c3)O2)cc1S(=O)(=O)CC(C)=O` (relative stereo) [trans-2-[3-(2-Oxopropylsulfonyl)-4-n-propoxy-5-{2-(1-piperidinyl)-ethoxy}phenyl]-5-(3,4,5-trimethoxyphenyl)tetrahydrofuran] the figure was 34%.
In the case of `CCCOc1c(OCCCSc2nc[nH]n2)cc([C@@H]2CC[C@@H](c3cc(OC)c(OC)c(OC)c3)O2)cc1S(=O)(=O)CC(C)=O` (relative stereo) [trans-2-[3-(2-Oxopropylsulfonyl)-4-n-propoxy-5-{3-(1H-1,2,4-triazolyl-3-thio)n-propoxy}phenyl]-5-(3,4,5-trimethoxyphenyl)tetrahydrofuran], at 0.003 µM the inhibition was 69%.
As for `CCCS(=O)(=O)c1cc([C@H]2CC[C@H](c3cc(OC)c(OC)c(OC)c3)O2)cc(OC)c1OCCSc1ccc(N(C)C)cc1` (relative stereo) [trans-2-[3-n-Propylsulfonyl-4-{2-(4-dimethylaminophenylthio)ethoxy}-5-methoxyphenyl]-5-(3,4,5-trimethoxyphenyl)tetrahydrofuran], the figure is 66%; as for `CCCOc1c(OCCCN2CCOCC2)cc([C@@H]2CC[C@@H](c3cc(OC)c(OC)c(OC)c3)O2)cc1S(=O)(=O)CC(C)O` (relative stereo) [trans-2-[3-(2-hydroxypropyl-sulfonyl)-4-propoxy-5-{3-(1-morpholino)-n-propoxy}phenyl]-5-(3,4,5-trimethoxyphenyl)tetrahydrofuran], 18%.
